Data as given in patent publication US20240101546A1, “HETEROARYL-ACETYLENES, PHARMACEUTICAL COMPOSITIONS THEREOF, AND THEIR THERAPEUTIC APPLICATIONS” (Eubulus Biotherapeutics Inc., priority 2020, published 2024).

The molecules below were run on hepatocellular carcinoma cell line Hub-7 (assay: Cell proliferation assay, Hub-7 (CELL-TITER GLO)). Details: Hub-7 cells, 24 h incubation, cell viability by CELL-TITER GLO, top concentration 10 μM; read-out: EC50, Inhibition of Hub-7 Cell Proliferation.
Format: cell-based
Summary of the method: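 Hub-7 cells, 4,000 per well, seeded overnight, then exposed 24 h to compound from 10 μM top in 3-fold serial dilution. Viability read by CELL-TITER GLO luminescence; EC50 derived and binned into potency categories.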

`C#Cc1ncc(C(=O)N2CCN(c3ccc(-c4cccc5scnc45)cc3)CC2)s1` [Compound D8, (4-(4-(Benzo[d]thiazol-4-yl)phenyl)piperazin-1-yl)(2-ethynylthiazol-5-yl)methanone] and `C#Cc1nc(C(=O)N2CCN(c3ccc(-c4cccc5ncsc45)cc3)CC2)cs1` [Compound D17, (4-(4-(Benzo[d]thiazol-7-yl)phenyl)piperazin-1-yl)(2-ethynylthiazol-4-yl)-methanone] cannot be ordered by EC50: 0.2 to 1 µM for the first, no more than 0.2 µM for the second.

`C#Cc1nc(C(=O)N2CCN(c3ccc(-c4cccc5ncsc45)cc3Cl)CC2)cs1` [Compound D9, (4-(4-(Benzo[d]thiazol-7-yl)-2-chlorophenyl)piperazin-1-yl)(2-ethynylthiazol-4-yl)methanone] and `C#Cc1nc(C(=O)N2CCN(c3ccc(-c4cccc5ncsc45)cc3C#N)CC2)cs1` [Compound D12, 5-(Benzo[d]thiazol-7-yl)-2-(4-(2-ethynylthiazole-4-carbonyl)piperazin-1-yl)-benzonitrile] cannot be ordered by EC50: no more than 0.2 µM for the first, no more than 0.2 µM for the second.

`C#Cc1nc(C(=O)N2CCN(c3ccc(-c4cccc5ncsc45)cn3)CC2)cs1` [Compound D10, (4-(5-(Benzo[d]thiazol-7-yl)pyridin-2-yl)piperazin-1-yl)(2-ethynylthiazol-4-yl)-methanone] and `C#Cc1nc(C(=O)N2CCN(c3cccc(-c4cccc5ncsc45)c3)CC2)cs1` [Compound D16, (4-(3-(Benzo[d]thiazol-7-yl)phenyl)piperazin-1-yl)(2-ethynylthiazol-4-yl)-methanone] cannot be ordered by EC50: no more than 0.2 µM for the first, 0.2 to 1 µM for the second.

`C#Cc1nc(C(=O)N2CCC(F)(c3ccc(-c4cccc5ncsc45)cc3)CC2)cs1` [Compound D11, (4-(4-(Benzo[d]thiazol-7-yl)phenyl)-4-fluoropiperidin-1-yl)(2-ethynylthiazol-4-yl)methanone] and `C#Cc1nc(C(=O)N2CCC(O)(c3ccc(-c4cccc5ncsc45)cc3)CC2)cs1` [Compound D14, (4-(4-(Benzo[d]thiazol-7-yl)phenyl)-4-hydroxypiperidin-1-yl)(2-ethynylthiazol-4-yl)methanone] cannot be ordered by EC50: no more than 0.2 µM for the first, no more than 0.2 µM for the second.

`C#Cc1nc(C(=O)N2CC(c3ccc(-c4cccc5ncsc45)cc3)C2)cs1` [Compound D13, (3-(4-(Benzo[d]thiazol-7-yl)phenyl)azetidin-1-yl)(2-ethynylthiazol-4-yl)-methanone] and `C#Cc1nc(C(=O)N2CCC(c3ccc(-c4cccc5ncsc45)cc3)CC2)cs1` [Compound D18, (4-(4-(Benzo[d]thiazol-7-yl)phenyl)piperidin-1-yl)(2-ethynylthiazol-4-yl)-methanone] cannot be ordered by EC50: no more than 0.2 µM for the first, no more than 0.2 µM for the second.

`C#Cc1nc(C(=O)N2CCC(c3cccc(-c4cccc5ncsc45)c3)CC2)cs1` [Compound D15, (4-(3-(Benzo[d]thiazol-7-yl)phenyl)piperidin-1-yl)(2-ethynylthiazol-4-yl)-methanone] and `C#Cc1nc(C(=O)N2CCC(c3ccc(-c4cccc5nn(C)cc45)cc3)CC2)cs1` [Compound D19, (2-Ethynylthiazol-4-yl)(4-(4-(2-methyl-2H-indazol-4-yl)phenyl)piperidin-1-yl)-methanone] cannot be ordered by EC50: 0.2 to 1 µM for the first, no more than 0.2 µM for the second.

`C#Cc1nc(C(=O)N2CCC(c3ccc(-c4cccc5c4cnn5C)cc3)CC2)cs1` [Compound D20, (2-Ethynylthiazol-4-yl)(4-(4-(1-methyl-1H-indazol-4-yl)phenyl)piperidin-1-yl)-methanone] and `C#Cc1nc(C(=O)N2CCC(c3ccc(-c4cccc5[nH]ncc45)cc3)CC2)cs1` [Compound D21, (4-(4-(1H-Indazol-4-yl)phenyl)piperidin-1-yl)(2-ethynylthiazol-4-yl)methanone] cannot be ordered by EC50: no more than 0.2 µM for the first, no more than 0.2 µM for the second.

`C#Cc1nc(C(=O)N2CCN(c3ccc(-c4cccc5c4cnn5C)cc3)CC2)cs1` [Compound D22, (2-Ethynylthiazol-4-yl)(4-(4-(1-methyl-1H-indazol-4-yl)phenyl)piperazin-1-yl)-methanone] and `C#Cc1nc(C(=O)N2CCN(c3ccc(-c4cccc5nn(C)cc45)cc3)CC2)cs1` [Compound D23, (2-Ethynylthiazol-4-yl)(4-(4-(2-methyl-2H-indazol-4-yl)phenyl)piperazin-1-yl)-methanone] cannot be ordered by EC50: no more than 0.2 µM for the first, no more than 0.2 µM for the second.

`C#Cc1nc(C(=O)N2CCC(c3ccc(C#N)cc3)CC2)cs1` [Compound D24, 4-(1-(2-Ethynylthiazole-4-carbonyl)piperidin-4-yl)benzonitrile] and `C#Cc1nc(C(=O)N2CCC(c3ccccc3)CC2)cs1` [Compound D29, (2-Ethynylthiazol-4-yl)(4-phenylpiperidin-1-yl)methanone] cannot be ordered by EC50: no more than 0.2 µM for the first, 0.2 to 1 µM for the second.

`C#Cc1nc(C(=O)N2CCN(c3ccc(-c4cccc5[nH]ncc45)cc3)CC2)cs1` [Compound D25, (4-(4-(1H-Indazol-4-yl)phenyl)piperazin-1-yl)(2-ethynylthiazol-4-yl)methanone] and `C#Cc1nc(C(=O)N2CCN(c3ccc(C#N)cc3)CC2)cs1` [Compound D26, 4-(4-(2-Ethynylthiazole-4-carbonyl)piperazin-1-yl)benzonitrile] cannot be ordered by EC50: no more than 0.2 µM for the first, 0.2 to 1 µM for the second.

`C#Cc1nc(C(=O)N2CCN(c3ccc([N+](=O)[O-])cc3)CC2)cs1` [Compound D27, (2-Ethynylthiazol-4-yl)(4-(4-nitrophenyl)piperazin-1-yl)methanone] and `C#Cc1nc(C(=O)N2CCN(c3ccccc3)CC2)cs1` [Compound D28, (2-Ethynylthiazol-4-yl)(4-phenylpiperazin-1-yl)methanone] cannot be ordered by EC50: no more than 0.2 µM for the first, 0.2 to 1 µM for the second.

First: C#Cc1nc(C(=O)N2CCc3ccccc3C2)cs1 [Compound D30, (3,4-Dihydroisoquinolin-2(1H)-yl)(2-ethynylthiazol-4-yl)methanone]
Second: C#Cc1nc(C(=O)N2CCC(O)CC2)cs1 [Compound D31, (2-Ethynylthiazol-4-yl)(4-hydroxypiperidin-1-yl)methanone]
The EC50 of the first is lower: 0.2 to 1 µM for the first, greater than 5 µM for the second. The first is the more potent here.

`C#Cc1nc(C(=O)N2CCCCC2CCO)cs1` (stereo not drawn) [Compound D32, (2-Ethynylthiazol-4-yl)(2-(2-hydroxyethyl)piperidin-1-yl)methanone] and `C#Cc1nc(C(=O)N2CCCCC2C(=O)OC)cs1` (stereo not drawn) [Compound D37, Methyl 1-(2-ethynylthiazole-4-carbonyl)piperidine-2-carboxylate] cannot be ordered by EC50: greater than 5 µM for the first, greater than 5 µM for the second.

`C#Cc1nc(C(=O)N2CCCC(CO)C2)cs1` (stereo not drawn) [Compound D33, (2-Ethynylthiazol-4-yl)(3-(hydroxymethyl)piperidin-1-yl)methanone] and `C#Cc1nc(C(=O)N2CCCC(O)C2)cs1` (stereo not drawn) [Compound D34, (2-Ethynylthiazol-4-yl)(3-hydroxypiperidin-1-yl)methanone] cannot be ordered by EC50: greater than 5 µM for the first, greater than 5 µM for the second.

`C#Cc1nc(C(=O)N2CCC(C(=O)OC)CC2)cs1` [Compound D35, Methyl 1-(2-ethynylthiazole-4-carbonyl)piperidine-4-carboxylate] and `C#Cc1nc(C(=O)N2CCCC(C(=O)OC)C2)cs1` (stereo not drawn) [Compound D36, Methyl 1-(2-ethynylthiazole-4-carbonyl)piperidine-3-carboxylate] cannot be ordered by EC50: greater than 5 µM for the first, greater than 5 µM for the second.

`C#Cc1nc(NC(=O)CCc2ccc(-c3cccc4ncsc34)cc2)cs1` [Compound E1, 3-(4-(benzo[d]thiazol-7-yl)phenyl)-N-(2-ethynylthiazol-4-yl)propanamide] and `C#Cc1nc(NC(=O)CCc2ccc(-c3cccc4c3cnn4C)cc2)cs1` [Compound E4, N-(2-Ethynylthiazol-4-yl)-3-(4-(1-methyl-1H-indazol-4-yl)phenyl)propanamide] cannot be ordered by EC50: 0.2 to 1 µM for the first, no more than 0.2 µM for the second.

First: C#Cc1nc(NC(=O)[C@@H](N)Cc2ccccc2)cs1 [Compound E2, (S)-2-Amino-N-(2-ethynylthiazol-4-yl)-3-phenylpropanamide]
Second: C#Cc1nc(NC(=O)[C@H](N)Cc2ccccc2)cs1 [Compound E3, (R)-2-Amino-N-(2-ethynylthiazol-4-yl)-3-phenylpropanamide]
The EC50 of the first is higher: 1 to 5 µM for the first, 0.2 to 1 µM for the second.

Compared with `C#Cc1nc(NC(=O)[C@H](N)Cc2ccccc2C#N)cs1` [Compound E5, (R)-2-Amino-3-(2-cyanophenyl)-N-(2-ethynylthiazol-4-yl)propenamide], `C#Cc1nc(NC(=O)[C@@H](N)Cc2ccccc2C#N)cs1` [Compound E8, (S)-2-Amino-3-(2-cyanophenyl)-N-(2-ethynylthiazol-4-yl)propenamide] is higher in EC50: no more than 0.2 µM for the first, 1 to 5 µM for the second.

First: C#Cc1nc(C(=O)NCCc2cccc(-c3cncs3)c2)cs1 [Compound E6, 2-Ethynyl-N-(3-(thiazol-5-yl)phenethyl)thiazole-4-carboxamide]
Second: C#Cc1nc(C(=O)NCCc2cccc(-c3cscn3)c2)cs1 [Compound E7, 2-Ethynyl-N-(3-(thiazol-4-yl)phenethyl)thiazole-4-carboxamide]
The EC50 of the first is lower: 0.2 to 1 µM for the first, 1 to 5 µM for the second.

Compared with `C#Cc1nc(NC(=O)CCc2ccc3c(c2)OCO3)cs1` [Compound E9, 3-(Benzo[d][1,3]dioxol-5-yl)-N-(2-ethynylthiazol-4-yl)propanamide], `C#Cc1nc(NC(=O)c2ccccc2)cs1` [Compound E12, N-(2-Ethynylthiazol-4-yl)benzamide] is higher in EC50: 0.2 to 1 µM for the first, 1 to 5 µM for the second.

First: C#Cc1nc(NC(=O)c2ccc3ccccc3n2)cs1 [Compound E10, N-(2-Ethynylthiazol-4-yl)quinoline-2-carboxamide]
Second: C#Cc1nc(NC(=O)C=Cc2ccccc2)cs1 [Compound E11, N-(2-Ethynylthiazol-4-yl)cinnamamide]
The EC50 of the first is higher: 1 to 5 µM for the first, 0.2 to 1 µM for the second. The second is the more potent here.
